Paper PMC5339480, “Mutagenic and Cytotoxicity LQB 123 Profile: Safety and Tripanocidal Effect of a Phenyl-t-Butylnitrone Derivative” (BioMed Research International, 2017)

Legend:
[1] = system: Salmonella typhimurium TA100; test: Salmonella/microsome assay, TA100
Description: (§1) Stationary growth cultures of histidine auxotrophic Salmonella typhimurium (2 × 10^9 cells/mL) TA97, TA98, TA100, TA102, and TA1535 strains were obtained at 37°C in lysogenic broth (LB, 10 g/L tryptone; 5 g/L yeast extract; 10 g/L NaCl) containing 8 μg/mL ampicillin and 2 μg/mL tetracycline (only for TA102). All strains used in the present work were from our laboratory collection. […] Then, the Ames test was performed according to Maron and Ames. DMSO was used as a negative control. […] All chemicals were from Sigma Co.

[2] = system: Salmonella typhimurium TA1535; test: Salmonella/microsome assay, TA1535
Description: as §1

[3] = system: Salmonella typhimurium TA97; test: Salmonella/microsome assay, TA97; format: cell-based; conditions: +S9, positive control (PC) 517 μM
Source text: (§2) DMSO was used as a negative control. […] All chemicals were from Sigma Co.

[4] = system: Salmonella typhimurium TA98; test: Salmonella/microsome assay, TA98; format: cell-based; conditions: +S9, positive control (PC) 517 μM
Source text: as §2

[5] = system: T. cruzi; set-up: method as in PMID 20510218; conditions: treated only with PBN; cited from earlier work
[6] = system: Salmonella; conditions: cited from earlier work
[7] = TA100, −S9, positive control (PC) 769 μM
[8] = TA1535, −S9, positive control (PC) 154 μM

Structure (SMILES): Nc1ccc2cc3ccccc3cc2c1 [2-AA, 2-aminoanthracene]
- MI (mutagenicity index) ([1]; Salmonella typhimurium): 4.6
- Number of revertant colonies per plate, Mean ± SD ([1]; Salmonella typhimurium): 1257 ± 107^∗
- MI (mutagenicity index) ([2]; Salmonella typhimurium): 10.1
- Number of revertant colonies per plate, Mean ± SD ([2]; Salmonella typhimurium): 168 ± 18^∗
- MI (mutagenicity index) [3]: 9.0
- Number of revertant colonies per plate, Mean ± SD [3]: 1488 ± 139^∗
- MI (mutagenicity index) [4]: 16.0
- Number of revertant colonies per plate, Mean ± SD [4]: 291 ± 36^∗

Structure (SMILES): [N-]=[N+]=[N-].[Na+] [AS, sodium azide]
- MI (mutagenicity index) [1, 7]: 3.2
- Number of revertant colonies per plate, Mean ± SD [1, 7]: 637 ± 52^∗
- MI (mutagenicity index) [2, 8]: 47.3
- Number of revertant colonies per plate, Mean ± SD [2, 8]: 615 ± 83^∗

Structure (SMILES): CC(C)(C)/[N+]([O-])=C/c1ccccc1 [PBN, alpha-phenyl-tert-butyl nitrone]
- parasite persistence [5]: no decline in parasite persistence

Structure (SMILES): O=C(Cn1ccnc1[N+](=O)[O-])NCc1ccccc1 [benznidazole]
- dose giving the maximum mutagenic rate [6]: 100 micrograms per plate
